The source of these data is publication PMC10485820 (European Journal of Pharmaceutical Sciences, 2023).

Data set [1] is described as follows: Equilibrium solubility of the HSK7653 API in various media. In kind it is physicochemical. The following applies: 37 °C, thermodynamic from solid. The procedure: Tests were performed by adding an excess amount of API to vials and stirring continuously at a speed of 200 rpm for 24 h at 37 °C. The API concentration was detected once per minute by an in situ fiber-optic ultraviolet (UV) dissolution real-time monitoring system (Pion Scientific Instruments, Billerica, MA, USA). All measurements were performed with n = 3.

A short description of data set [2]: Drug-drug interaction study of HSK7653 with metformin, multiple doses, Chinese healthy volunteers (CTR20191549): pharmacokinetics. To be noted: human, in vivo, oral, Multiple dose (D1 35 mg; D8/D15/D22 25 mg) with metformin, fasted.
Data set [3] addresses T1, breast cancer resistance protein (Homo sapiens, UniProt Q9UNQ0).
T1 sequence (Q9UNQ0 1-655): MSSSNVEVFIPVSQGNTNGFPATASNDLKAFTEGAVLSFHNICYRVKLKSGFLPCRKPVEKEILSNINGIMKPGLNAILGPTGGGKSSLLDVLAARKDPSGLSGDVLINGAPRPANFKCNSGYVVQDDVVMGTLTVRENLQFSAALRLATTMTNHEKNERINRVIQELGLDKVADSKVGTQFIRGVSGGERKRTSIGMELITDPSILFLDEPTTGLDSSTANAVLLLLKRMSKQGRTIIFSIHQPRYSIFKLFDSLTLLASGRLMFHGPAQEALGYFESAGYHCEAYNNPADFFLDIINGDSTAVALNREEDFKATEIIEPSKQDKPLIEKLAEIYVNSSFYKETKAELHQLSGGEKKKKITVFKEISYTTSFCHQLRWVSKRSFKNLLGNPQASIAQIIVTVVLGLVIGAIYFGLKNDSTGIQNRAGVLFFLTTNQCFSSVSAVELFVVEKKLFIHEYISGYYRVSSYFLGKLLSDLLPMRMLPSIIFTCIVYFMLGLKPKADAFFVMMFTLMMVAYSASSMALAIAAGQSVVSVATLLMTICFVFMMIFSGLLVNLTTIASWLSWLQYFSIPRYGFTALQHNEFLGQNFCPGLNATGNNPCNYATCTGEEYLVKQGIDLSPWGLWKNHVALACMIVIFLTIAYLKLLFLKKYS
Briefly: Preclinical transporter substrate assessment (unpublished). In kind it is in vitro ADME.

Data set [4] in a line: Radioactivity recovery in feces after oral administration to rats (unpublished). It is filed as in vivo.
The target of another data set is T2, OAT1 (Homo sapiens, UniProt Q4U2R8).
T2 sequence (Q4U2R8 1-563): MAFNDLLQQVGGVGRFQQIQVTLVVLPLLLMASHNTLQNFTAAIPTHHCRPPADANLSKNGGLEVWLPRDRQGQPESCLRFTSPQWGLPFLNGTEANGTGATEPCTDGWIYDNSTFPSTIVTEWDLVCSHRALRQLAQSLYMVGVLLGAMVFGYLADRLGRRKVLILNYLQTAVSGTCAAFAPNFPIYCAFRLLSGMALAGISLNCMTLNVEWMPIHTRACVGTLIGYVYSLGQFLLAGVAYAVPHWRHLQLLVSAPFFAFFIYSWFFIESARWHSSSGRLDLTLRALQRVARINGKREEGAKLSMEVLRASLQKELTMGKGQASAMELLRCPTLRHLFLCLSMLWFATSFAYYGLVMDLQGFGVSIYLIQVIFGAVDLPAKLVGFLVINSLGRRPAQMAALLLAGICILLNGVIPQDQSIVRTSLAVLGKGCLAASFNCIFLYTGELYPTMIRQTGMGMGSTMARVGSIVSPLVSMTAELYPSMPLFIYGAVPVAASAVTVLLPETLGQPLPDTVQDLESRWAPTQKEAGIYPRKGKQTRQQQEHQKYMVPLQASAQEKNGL
Briefly: Preclinical transporter substrate assessment (unpublished). It is filed as in vitro ADME.

Data set [5] can be described thus: Stability in human liver microsomes incubation system (unpublished). The following applies: 1 μM, 0.5 mg/mL human liver microsomes. Background: Liver microsomes are a subcellular fraction often used to study metabolism.
Method: (§2) Reactions were stopped by removing the plates from the incubator and mixing the incubation solution with 600 μL of ice-cold stop solution (acetonitrile) at the corresponding sampling time points.
The next data set is described as follows: in vitro. To be noted: human.
Data set [6] can be described thus: Biliary drainage study in rats (unpublished). In kind it is in vivo.
The conditions of data set [7]: Predicted by SIVA from dissolution profile in FaSSGF.
Text: (§3) Based on the results of the two-stage biorelevant dissolution test (see Fig. 4 in 3.2 section), the precipitation parameters in the DLM were not assessed, and the critical supersaturation ratio (CSC) and precipitation rate constant (PRC) were set to the minimum values, respectively.
(§4) Furthermore, solubility parameters, representing the influence of pH and bile salts on the solubility, were estimated by Eq. (3) according to the experimental results.
(§5) Accordingly, it was unnecessary to evaluate the precipitation parameters for the development of DLM, which (CSC and PCR) were set to minimum values in DLM. Most importantly, the dissolution parameters, such as heff and DLMs, were estimated by Eq. (4) from the dissolution profile in 300 mL FaSSGF medium. Meanwhile, the disintegration lag time of the formulation was evaluated with the method of Weibull function, so that the dissolution profile could be captured by Eq. (4).
Data set [8] in a line: Blood-to-plasma partition ratio and fraction unbound in plasma. In kind it is in vitro ADME. The following applies: Measured (in vivo). From the text:
(§1) The development of the DLM was complex.

In the next data set the target is T3, OATP1B1 (Homo sapiens, UniProt Q9Y6L6).
T3 sequence (Q9Y6L6 1-691): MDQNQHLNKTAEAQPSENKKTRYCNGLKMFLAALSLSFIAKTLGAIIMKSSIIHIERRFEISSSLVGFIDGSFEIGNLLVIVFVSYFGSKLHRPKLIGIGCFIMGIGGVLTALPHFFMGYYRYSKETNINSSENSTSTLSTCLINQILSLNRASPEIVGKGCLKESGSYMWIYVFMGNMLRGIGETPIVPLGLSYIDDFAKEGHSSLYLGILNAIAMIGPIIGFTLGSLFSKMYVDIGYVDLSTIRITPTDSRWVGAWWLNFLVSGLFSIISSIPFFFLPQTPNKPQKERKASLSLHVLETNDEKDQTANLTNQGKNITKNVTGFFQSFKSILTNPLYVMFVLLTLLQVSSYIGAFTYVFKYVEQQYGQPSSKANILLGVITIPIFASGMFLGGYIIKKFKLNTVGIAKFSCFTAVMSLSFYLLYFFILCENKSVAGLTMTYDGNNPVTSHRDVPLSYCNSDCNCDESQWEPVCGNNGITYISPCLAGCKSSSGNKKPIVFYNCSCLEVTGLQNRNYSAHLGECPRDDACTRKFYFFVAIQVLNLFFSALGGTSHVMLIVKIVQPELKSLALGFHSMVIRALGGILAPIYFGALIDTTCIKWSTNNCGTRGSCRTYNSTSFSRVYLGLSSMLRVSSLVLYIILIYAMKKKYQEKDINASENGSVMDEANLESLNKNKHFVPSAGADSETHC
Briefly: Preclinical transporter substrate assessment (unpublished). In kind it is in vitro ADME.

Another data set relates to glycosylated hemoglobin. Briefly: Multidose exploratory clinical study of T2DM patients (CTR20182505): glycosylated hemoglobin. In kind it is in vivo, human. To be noted: after six doses of oral administration.
Data set [9] in a line: Physicochemical parameters (log P, pKa) from experimental outcomes. The following applies: Measured (in vitro).
Text: as §1

Values after ≈ are worked out from the molar mass of the structure shown.

Method for in vitro: as §2
Text for physchem: as §3, §4, §5

A word on the solubility: it is the dissolved amount per volume that the medium holds. As usually defined, the solubility (thermodynamic) is solubility found after equilibrating the solid with the medium. A word on the Cmax: it is the highest concentration seen after dosing. As usually defined, the half-life is how long it takes for the measured level to halve. As a reminder, the hepatocyte CLint is a measure of how fast metabolising enzymes remove a compound, apart from limits set by blood flow. Broadly, the fraction unbound is free concentration divided by total concentration. The term logP denotes the decadic logarithm of the partition coefficient of the neutral form, usually between octanol and water. A low value points to a more hydrophilic compound. The pKa is the negative logarithm of the acid dissociation constant. With `CS(=O)(=O)n1cc2c(n1)CN([C@@H]1C[C@H](N)[C@@H](c3cc(F)ccc3F)O[C@@H]1C(F)(F)F)C2` [HSK7653], the solubility at 24 h is ~5310 µg/mL (≈ 11400 µM) in data set [1] (fassgf or other biorelevant, FaSSGF medium) and ~342 µg/mL (≈ 733 µM) in data set [1] (FaSSIF medium). The solubility (thermodynamic) at 24 h in data set [1] (pH 1.0 hydrochloric acid (HCl) solution, simulated gastric fluid, pH 1.0 HCl solution) is 11600 µg/mL (≈ 24800 µM); in [1] (pH 8.0 phosphate buffer saline (PBS), aqueous buffer, pH 8.0 PBS) it was 120 µg/mL (≈ 257 µM). In [2], this molecule came in with a Cmax of 533 ng/mL. Further, the clearance in data set [2] (read-out: CL Obs (converted)) was 9.17 mL/min. Further, the Vd/F in data set [2] (read-out: VZ/F Obs) was determined as 1.08 L/kg. For the same molecule, the Transporter substrate assessment result (in data set [3]; on OAT1; on OATP1B1) was “not a common transport substrate” in each case. Moreover, the concentration in solution in the data set “physchem” (solubility) came to 7 µg/mL (≈ 15 µM). Further, in data set [4], the “Radioactivity recovered in feces” value is reported as “approximately 62.1%”. Moreover, the “Metabolic stability in human liver microsomes” value in data set [5] is given as “very stable”. This molecule also showed a half-life at 0.05 μM in the data set “in vitro” (primary human plated hepatocytes) of 12.2 days. In “in vitro” (primary plated hepatocytes (cryopreserved, 10 donors mixed)), this molecule registered a hepatocyte CLint at 0.05 μM of 0.056 µL/min/1e6 cells. In data set [6], the “Radioactivity recovered in biliary drainage study” value is listed as “approximately 16.6%”. For the same molecule, the “DLM Scalar values” in data set [7] (All segments) is given as 3.009. The heff cut-off value in [7] (Hintz-Johnson) is recorded as 36.345 μm. Moreover, in [8], the fraction unbound is 0.143. For the same molecule, the Glycosylated hemoglobin change entry in the data set with glycosylated hemoglobin is reported as “significantly reduced”. For the same molecule, in data set [9], the logP worked out at 1.42. The pKa in data set [9] (Monoprotic base) was 6.75.
